From paper PMC8048783, “CYP154C5 Regioselectivity in Steroid Hydroxylation Explored by Substrate Modifications and Protein Engineering” (Chembiochem, 2020)

Tests used:
CYP154C5 [1] = target: T1, CYP154C5 (Nocardia farcinica, UniProt Q5YNS8); experiment: biochemical; assay type: binding
T1 construct: gene NFA_53110; full-length, N-terminal His-tag (pET28a(+), NdeI/HindIII), purified from E. coli C43(DE3)

CYP154C5 [2] = target: T2, CYP154C5 (Nocardia farcinica, UniProt Q5YNS8, Q398A); experiment: type I spectral shift titration, tight-binding fit
T2 construct: gene NFA_53110; full-length, N-terminal His-tag (pET28a(+), NdeI/HindIII), purified from E. coli C43(DE3)
T2 sequence (Q5YNS8 whole entry Q398A): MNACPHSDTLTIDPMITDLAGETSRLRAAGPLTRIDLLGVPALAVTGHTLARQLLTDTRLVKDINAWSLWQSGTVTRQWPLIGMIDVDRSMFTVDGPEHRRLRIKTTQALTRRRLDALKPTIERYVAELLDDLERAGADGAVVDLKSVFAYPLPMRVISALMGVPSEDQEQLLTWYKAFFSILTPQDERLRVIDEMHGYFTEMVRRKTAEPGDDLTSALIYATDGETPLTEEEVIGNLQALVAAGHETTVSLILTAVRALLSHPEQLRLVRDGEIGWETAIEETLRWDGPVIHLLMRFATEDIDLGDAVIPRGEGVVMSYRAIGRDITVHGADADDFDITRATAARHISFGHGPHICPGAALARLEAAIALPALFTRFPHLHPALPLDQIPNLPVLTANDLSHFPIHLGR
From the text: (§1) type I spectral shift titration, tight-binding fit on CYP154C5

CYP154C5 [3] = target: T3, CYP154C5 (Nocardia farcinica, UniProt Q5YNS8, F92A); experiment: type I spectral shift titration, tight-binding fit
T3 construct: gene NFA_53110; full-length, N-terminal His-tag (pET28a(+), NdeI/HindIII), purified from E. coli C43(DE3)
T3 sequence (Q5YNS8 whole entry F92A): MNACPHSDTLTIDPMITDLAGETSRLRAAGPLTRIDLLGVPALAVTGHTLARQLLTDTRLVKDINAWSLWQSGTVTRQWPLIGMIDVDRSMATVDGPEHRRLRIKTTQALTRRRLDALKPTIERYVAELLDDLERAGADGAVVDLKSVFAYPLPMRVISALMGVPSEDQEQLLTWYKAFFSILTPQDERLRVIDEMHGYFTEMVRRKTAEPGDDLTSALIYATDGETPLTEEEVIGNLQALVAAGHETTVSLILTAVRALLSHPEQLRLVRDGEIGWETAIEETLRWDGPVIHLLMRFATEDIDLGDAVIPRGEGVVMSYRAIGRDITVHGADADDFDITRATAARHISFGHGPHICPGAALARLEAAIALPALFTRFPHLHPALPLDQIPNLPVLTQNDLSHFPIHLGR
From the text: as §1

CYP154C5 [4] = target: T4, CYP154C5 (Nocardia farcinica, UniProt Q5YNS8, M84A); experiment: type I spectral shift titration, tight-binding fit
T4 construct: gene NFA_53110; full-length, N-terminal His-tag (pET28a(+), NdeI/HindIII), purified from E. coli C43(DE3)
T4 sequence (Q5YNS8 whole entry M84A): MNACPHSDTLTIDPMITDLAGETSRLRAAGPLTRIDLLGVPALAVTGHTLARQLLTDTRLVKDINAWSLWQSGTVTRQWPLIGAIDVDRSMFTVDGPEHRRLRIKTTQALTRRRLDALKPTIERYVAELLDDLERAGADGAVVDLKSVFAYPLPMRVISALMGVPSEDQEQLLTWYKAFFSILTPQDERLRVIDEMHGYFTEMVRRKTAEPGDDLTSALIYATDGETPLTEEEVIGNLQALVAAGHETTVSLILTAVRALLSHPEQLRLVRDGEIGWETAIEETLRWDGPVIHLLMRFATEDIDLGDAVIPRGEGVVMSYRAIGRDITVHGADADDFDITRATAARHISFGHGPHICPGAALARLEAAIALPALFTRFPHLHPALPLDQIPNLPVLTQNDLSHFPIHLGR
From the text: as §1

CYP154C5 [5] = target: T5, CYP154C5 (Nocardia farcinica, UniProt Q5YNS8, Q239A); experiment: type I spectral shift titration, tight-binding fit
T5 construct: gene NFA_53110; full-length, N-terminal His-tag (pET28a(+), NdeI/HindIII), purified from E. coli C43(DE3)
T5 sequence (Q5YNS8 whole entry Q239A): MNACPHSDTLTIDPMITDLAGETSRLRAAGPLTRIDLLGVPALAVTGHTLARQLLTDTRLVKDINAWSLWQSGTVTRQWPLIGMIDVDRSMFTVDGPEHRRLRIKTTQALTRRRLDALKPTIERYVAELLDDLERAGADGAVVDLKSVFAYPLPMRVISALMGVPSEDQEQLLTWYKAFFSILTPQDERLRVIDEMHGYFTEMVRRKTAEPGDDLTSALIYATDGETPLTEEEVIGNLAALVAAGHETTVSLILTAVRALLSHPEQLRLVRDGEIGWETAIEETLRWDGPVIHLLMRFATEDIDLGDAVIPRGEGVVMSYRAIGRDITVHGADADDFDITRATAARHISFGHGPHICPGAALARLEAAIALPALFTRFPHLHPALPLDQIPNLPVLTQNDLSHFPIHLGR
From the text: as §1

T1 sequence (Q5YNS8 entry or part of it): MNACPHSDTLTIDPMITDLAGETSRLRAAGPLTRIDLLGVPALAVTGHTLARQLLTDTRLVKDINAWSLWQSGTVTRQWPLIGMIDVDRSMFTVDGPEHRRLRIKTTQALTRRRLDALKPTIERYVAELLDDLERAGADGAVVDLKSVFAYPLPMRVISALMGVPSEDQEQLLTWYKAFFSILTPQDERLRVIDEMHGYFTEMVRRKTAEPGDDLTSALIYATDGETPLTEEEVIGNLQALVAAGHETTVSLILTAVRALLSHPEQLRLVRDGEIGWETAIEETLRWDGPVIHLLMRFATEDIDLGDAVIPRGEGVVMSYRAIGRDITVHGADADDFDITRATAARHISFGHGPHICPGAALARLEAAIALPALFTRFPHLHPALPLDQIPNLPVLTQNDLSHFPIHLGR

CC(=O)[C@H]1CC[C@H]2[C@@H]3CC=C4C[C@@H](O)CC[C@]4(C)[C@H]3CC[C@]12C [compound 1, pregnenolone]
Kd (CYP154C5 [1]): 62 ± 14 nM

C[C@]12CC[C@H](O)CC1=CC[C@@H]1[C@@H]2CC[C@]2(C)C(=O)CC[C@@H]12 [compound 2, dehydroepiandrosterone]
Kd (CYP154C5 [1]): < 1 nM | Kd (CYP154C5 [2]): 687 ± 43 nM | Kd (CYP154C5 [3]): 1020 ± 32 nM

CC(=O)[C@H]1CC[C@H]2[C@@H]3CCC4=CC(=O)CC[C@]4(C)[C@H]3CC[C@]12C [compound 3, progesterone]
Kd (CYP154C5 [1]): 15 ± 10 nM | Kd (CYP154C5 [2]): 34 ± 21 nM | Kd (CYP154C5 [3]): 209 ± 12 nM

C[C@]12CCC(=O)C=C1CC[C@@H]1[C@@H]2CC[C@]2(C)C(=O)CC[C@@H]12 [compound 4, androstenedione]
Kd (CYP154C5 [1]): 12 ± 7 nM | Kd (CYP154C5 [4]): 3130 ± 234 nM | Kd (CYP154C5 [3]): 512 ± 17 nM

C[C@]12CC[C@H]3[C@@H](CCC4=CC(=O)CC[C@@]43C)[C@@H]1CC[C@@H]2O [compound 5, testosterone]
Kd (CYP154C5 [1]): 18 ± 10 nM | Kd (CYP154C5 [4]): 5710 ± 161 nM | Kd (CYP154C5 [2]): 747 ± 45 nM | Kd (CYP154C5 [3]): 1480 ± 33 nM

C[C@]12CC[C@H]3[C@@H](CCC4=CC(=O)CC[C@@H]43)[C@@H]1CC[C@@H]2O [compound 6, nandrolone]
Kd (CYP154C5 [1]): 100 ± 17 nM | Kd (CYP154C5 [5]): 13 ± 6 nM

C[C@]12CCCCC1=CC[C@@H]1[C@@H]2CC[C@]2(C)C(=O)CC[C@@H]12 [compound 10, 3‐deoxydehydroepiandrosterone]
Kd (CYP154C5 [1]): 94 ± 52 nM

C[C@@]12CCC[C@H]1[C@@H]1CC[C@H]3CC(=O)CC[C@]3(C)[C@H]1CC2 [compound 11, 5α‐androstan‐3‐one]
Kd (CYP154C5 [1]): 20 ± 16 nM
